Laboratory results from patent US8580525B2, “Methods of screening for LTRPC7 modulators” (The Queen's Medical Center, priority 2000, dated 2013).
“Also recorded” adds a separate entry of the source.

Assays:
Assay type in all cases: cell-based
LTRPC7 [1] = target: T1, LTRPC7 (Mus musculus, UniProt Q923J1); assay: Equimolar substitution of 10 mM Ca^2+ by other divalent metal ions, whole-cell patch-clamp; settings: 10 mM test cation replacing 10 mM Ca^2+, HEK-293 over-expressing LTRPC7; for effect on outward current / effect on inward current: 60 s; for effect on outward current: +80 mV; for effect on inward current / increase in inward current compared to Ca^2+: -80 mV; for increase in inward current compared to Ca^2+: no Mg^2+
T1 construct: expressed in transfected cells
T1 sequence (Q923J1 2-1863 limits assumed): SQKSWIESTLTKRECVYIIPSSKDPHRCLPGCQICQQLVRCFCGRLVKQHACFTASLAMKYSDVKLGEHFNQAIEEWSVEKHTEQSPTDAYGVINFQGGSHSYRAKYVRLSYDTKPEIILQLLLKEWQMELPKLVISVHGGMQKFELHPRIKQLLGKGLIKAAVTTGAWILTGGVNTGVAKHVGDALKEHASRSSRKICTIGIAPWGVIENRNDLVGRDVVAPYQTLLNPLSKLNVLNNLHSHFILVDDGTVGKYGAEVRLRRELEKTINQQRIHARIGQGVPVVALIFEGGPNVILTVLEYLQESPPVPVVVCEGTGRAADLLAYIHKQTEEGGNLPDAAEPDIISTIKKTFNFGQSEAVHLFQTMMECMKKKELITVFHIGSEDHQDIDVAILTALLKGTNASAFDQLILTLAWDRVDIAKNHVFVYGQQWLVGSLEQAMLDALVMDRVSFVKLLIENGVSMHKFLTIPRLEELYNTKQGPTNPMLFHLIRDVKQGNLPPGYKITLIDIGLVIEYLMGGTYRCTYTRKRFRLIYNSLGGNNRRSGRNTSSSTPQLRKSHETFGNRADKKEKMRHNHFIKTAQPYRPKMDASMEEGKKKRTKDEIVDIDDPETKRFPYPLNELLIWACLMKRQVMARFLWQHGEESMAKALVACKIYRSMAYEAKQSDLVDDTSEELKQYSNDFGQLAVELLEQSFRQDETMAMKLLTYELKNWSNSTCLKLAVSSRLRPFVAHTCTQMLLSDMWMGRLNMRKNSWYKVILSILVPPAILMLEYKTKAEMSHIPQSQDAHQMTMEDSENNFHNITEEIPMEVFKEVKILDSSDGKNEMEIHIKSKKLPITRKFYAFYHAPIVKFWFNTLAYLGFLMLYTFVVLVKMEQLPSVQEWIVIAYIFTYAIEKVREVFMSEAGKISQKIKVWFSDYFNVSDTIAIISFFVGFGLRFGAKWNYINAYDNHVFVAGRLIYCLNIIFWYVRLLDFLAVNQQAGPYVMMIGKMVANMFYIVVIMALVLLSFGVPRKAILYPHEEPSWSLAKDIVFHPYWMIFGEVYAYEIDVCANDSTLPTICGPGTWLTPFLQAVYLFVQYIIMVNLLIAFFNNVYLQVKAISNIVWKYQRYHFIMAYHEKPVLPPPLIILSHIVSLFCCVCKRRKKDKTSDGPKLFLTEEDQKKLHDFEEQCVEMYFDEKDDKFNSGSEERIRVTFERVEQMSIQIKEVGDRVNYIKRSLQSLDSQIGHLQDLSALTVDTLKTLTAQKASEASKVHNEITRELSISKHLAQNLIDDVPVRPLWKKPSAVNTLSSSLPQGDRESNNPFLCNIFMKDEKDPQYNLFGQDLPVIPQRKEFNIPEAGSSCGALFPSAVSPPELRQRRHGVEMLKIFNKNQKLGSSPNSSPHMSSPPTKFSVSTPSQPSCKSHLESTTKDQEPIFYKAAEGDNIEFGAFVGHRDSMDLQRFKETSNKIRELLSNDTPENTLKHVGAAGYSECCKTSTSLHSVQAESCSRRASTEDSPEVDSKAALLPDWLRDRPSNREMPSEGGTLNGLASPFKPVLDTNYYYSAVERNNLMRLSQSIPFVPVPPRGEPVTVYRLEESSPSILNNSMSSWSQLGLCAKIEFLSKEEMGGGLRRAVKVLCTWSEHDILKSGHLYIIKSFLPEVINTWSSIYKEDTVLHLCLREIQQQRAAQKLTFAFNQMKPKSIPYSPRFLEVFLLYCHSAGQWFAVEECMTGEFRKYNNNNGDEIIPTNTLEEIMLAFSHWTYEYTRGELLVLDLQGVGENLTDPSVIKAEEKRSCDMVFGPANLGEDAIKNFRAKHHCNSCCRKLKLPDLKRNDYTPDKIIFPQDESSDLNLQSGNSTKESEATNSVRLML
Description: (§1) For patch-clamp experiments, cells grown on glass coverslips were transferred to the recording chamber and kept in a standard modified Ringer's solution of the following composition (in mM): NaCl 145, KCl 2.8, CsCl 10, CaCl2 1, MgCl2 2, glucose 10, Hepes.NaOH 10, pH 7.2. In some experiments, nominally Ca^2+ and/or Mg^2+-free extracellular solutions or isotonic Ca^2+ solutions (120 mM CaCl2) were applied by pressure ejection from wide-tipped pipettes. Intracellular pipette-filling solutions contained (in mM): Cs-glutamate 145, NaCl 8, MgCl2 1, Cs-BAPTA 10, pH 7.2 adjusted with CsOH. In some experiments, Cs-glutamate was replaced equimolarly by K-glutamate or N-methyl-D-glucamine-chloride. Patch-clamp experiments were performed in the tight-seal whole-cell configuration at 21-25° C. High-resolution current recordings were acquired by a computer-based patch-clamp amplifier system (EPC-9, HEKA, Lambrecht, Germany). Sylgard-coated patch pipettes had resistances between 2-4 M after filling with the standard intracellular solution. Immediately following establishment of the whole-cell configuration, voltage ramps of 50 ms duration spanning the voltage range of −100 to +100 mV were delivered from a holding potential of 0 mV at a rate of 0.5 Hz over a period of 200 to 400 seconds. All voltages were corrected for a liquid junction potential of 10 mV between external and internal solutions when internal solutions contained glutamate. Currents were filtered at 2.3 kHz and digitized at 100 μs intervals. Capacitive currents and series resistance were determined and corrected before each voltage ramp using the automatic capacitance compensation of the EPC-9. The low-resolution temporal development of currents at a given potential was extracted from individual ramp current records by measuring the current amplitudes at voltages of −80 mV or +80 mV.
LTRPC7 represents an ion channel that is selective for divalent cations at negative membrane potentials and its activity is regulated by intracellular levels of Mg.nucleotides (Nadler et al., 2001). Although the channel readily permeates monovalent ions upon removal of all divalent ions, inward currents carried by LTRPC7 under physiological conditions are largely carried by the dominant extracellular ion species Ca^2+ and Mg^2+. Ion currents carried by LTRPC7 have therefore been designated MagNuM (for Magnesium.Nucleotide-regulated Metal ion currents). In order to assess the permeation properties of LTRPC7 for other divalent ions, we measured ionic currents in substitution experiments, where 10 mM Ca^2+ was replaced with 10 mM of other divalent cations (FIG. 7). In these experiments, HEK-293 cells expressing LTRPC7 were kept in a bath solution containing 10 mM Ca^2+, without Mg^2+, and development of MagNuM was monitored by whole-cell patch-clamp as described previously (Nadler et al., 2001). When the current had reached maximal amplitude, cells were transiently exposed to an extracellular solution containing 10 mM of the test cation applied via a puffer pipette for a period of 60 s.

LTRPC7 [2] = target: T1, LTRPC7; assay: Mn^2+ quench of fura-2 fluorescence in intact cells; settings: 1 mM Mn^2+, initial 60 s
Description: In the second approach, we assayed LTRPC7 activity in intact cells using Mn^2+ quench of fura-2 fluorescence (FIG. 11D). In this experiment, HEK-293 cells over-expressing LTRPC7 were loaded with fura-2-AM and bathed in standard external solution with 1 mM Ca^2+ and 2 mM Mg^2+. Ca^2+-independent fluorescence was monitored at 360 nm (the isosbestic wavelength of fura-2) and after 120 s, an external solution containing 1 mM Mn^2+, 1 mM Ca^2+, and 0 Mg^2+ was applied for 180 s. To determine baseline quench levels, this protocol was applied to HEK-293 cells that were transfected with the same tetracycline-inducible recombinant LTRPC7 construct, but remained uninduced. As clearly shown in FIG. 11D, the application of 1 mM Mn^2+ caused a pronounced quench of the 360 nm signal in HEK-293 cells induced to express LTRPC7 (n=5), whereas Mn^2+-induced quench of the 360 nm signal in uninduced cells (n=5) was noticeable but much less dramatic. Linear regression over the initial 60 s of Mn^2+ exposure yielded a 10-fold higher rate of Mn^2+-induced quench of fura-2 fluorescence in induced cells (28%/o/min) as compared to uninduced cells (2.9%/min).

LTRPC7 [3] = target: T1, LTRPC7; assay: Permeation of divalent metal ions in isotonic solutions, whole-cell patch-clamp; settings: for effect on outward current / effect on inward current: isotonic solution (120 mM) of test cation for 60 s, HEK-293 over-expressing LTRPC7; for effect on outward current: +80 mV; for effect on inward current: -80 mV; for permeation sequence based on peak inward currents: isotonic solutions
Description: as §1
The use of isotonic solutions to probe divalent cation entry through LTRPC7 avoids complications in permeation properties arising from ion-ion interactions, and therefore allows unequivocal interpretation of inward currents—maintained or increased inward currents can only be consistent with permeation of the available extracellular cation. Isotonic solutions of 120 mM of each divalent ion yielded appropriate osmolarities within 10 mOsm from the standard bath and pipette solutions. In this series of experiments, the cells were bathed in the standard external solution containing 1 mM Ca^2+ and 2 mM Mg^2+. At 200 s, when MagNuM had reached its full amplitude, isotonic solutions of each transition metal were applied for 60 s via a puffer pipette.

LTRPC7 [4] = target: T1, LTRPC7; assay: Permeation and block by trivalent metal ions, whole-cell patch-clamp; settings: for suppression of inward or outward currents carried by LTRPC7: 10 μM (data not shown); for effect on outward currents / effect on inward currents: external solution with 10 mM Ca^2+ without Mg^2+; for effect on outward currents: +80 mV; for effect on inward currents: -80 mV
Description: as §1
We next tested a series of toxic trivalent metal ions (FIG. 10), which we suspected to not permeate through LTRPC7.

LTRPC7 [5] = target: T1, LTRPC7; assay: Simultaneous patch-clamp of MagNuM and fura-2 measurement of [Ca^2+]i, block by Mg.ATP; settings: 3 mM Mg.ATP in internal solution
Source text: Based on the above permeation data, we conclude that LTRPC7 must be viewed as a potential entry pathway for a wide variety of trace and toxic metal ions. […] We therefore performed two sets of experiments to address this issue. In the first, we assayed Ca^2+ permeation of LTRPC7 under conditions in which intracellular Ca^2+ is left unbuffered and LTRPC7 is activated or suppressed by manipulation of patch pipette [ATP]i. To this end, HEK-293 cells expressing LTRPC7 were kept in a bath solution with 2 mM each of Ca^2+ and Mg^2+ and were perfused with a Cs-glutamate-based internal solution containing 200 μM fura-2. Simultaneous development of MagNuM was monitored under whole-cell patch-clamp and delivering, from a holding potential of 0 mV, repetitive voltage ramps that spanned −100 to +100 mV over 50 ms at a rate of 0.5 Hz. When Mg.ATP was absent in the pipette, MagNuM rapidly activated, as witnessed by the increase in both inward and outward currents (FIG. 11A) as well as its characteristic current-voltage relationship (FIG. 11B). […] The progressive decrease in amplitude of hyperpolarization-driven changes in [Ca^2+]i observed under these conditions is likely due to increased Ca^2+ buffering as fura-2 equilibrates with the cytosol at its final concentration of 200 μM. […]

increase in inward current compared to Ca^2+ (LTRPC7 [1]) | SMILES | effect on outward current (LTRPC7 [1]) | effect on inward current (LTRPC7 [1]) | effect on outward current (LTRPC7 [3]) | effect on inward current (LTRPC7 [3]) | also measured
greater than three-fold | [Zn+2] [Zn^2+] | block of outward currents; also recorded: block of the outward current | large increase of the inward current |  |  | 
less than double | [Mn+2] [Mn^2+] | block of outward currents; also recorded: block of the outward current | slight to moderate increase of the inward current | strong block of the outward current | gradual increase of the inward current | rate of Mn^2+-induced quench, induced compared to uninduced cells (LTRPC7 [2]): 10 fold; rate of Mn^2+-induced quench of fura-2 fluorescence (LTRPC7 [2]; 360 nm, uninduced cells): 2.9 %/min
 | [Gd+3] [Gd^3+] |  |  |  |  | suppression of inward or outward currents carried by LTRPC7 (LTRPC7 [4]): ineffective; relative potency as blocker of MagNuM (LTRPC7 [4]; 10 mM, Gd^3+ versus La^3+): more potent inhibitor; also recorded: more potent blocker of MagNuM; effect on outward currents (LTRPC7 [4]; 10 mM): completely suppressed; effect on inward currents (LTRPC7 [4]; 10 mM): inhibited inward currents with no sign of significant permeation
less than double | [Mg+2] [Mg^2+] | strongest block of outward currents; also recorded: block of the outward current | slight to moderate increase of the inward current | block of the outward current |  | 
 | [Ba+2] [Ba^2+] | increase of the outward current | slight to moderate increase of the inward current | relatively minor inhibitions of the outward current | moderate increases of the inward | permeation sequence based on peak inward currents (LTRPC7 [3]): more effectively transported than Ca^2+ and Mg^2+
 | [Ca+2] [Ca^2+] |  |  | block of the outward current | increase of the inward | effect on outward current (LTRPC7 [3]; listed as CaCl2): strongly inhibited outward currents; effect on inward current (LTRPC7 [3]; listed as CaCl2): enhanced inward currents
 | [Cd+2] [Cd^2+] | increases of the outward current | slight to moderate increases of the inward current |  |  | effect on outward current (LTRPC7 [1]; listed as Cd 2+): increase of the outward current; effect on inward current (LTRPC7 [1]; listed as Cd 2+): slight to moderate increase of the inward current
 | Nc1ncnc2c1ncn2[C@@H]1O[C@H](COP(=O)(O)OP(=O)([O-])OP(=O)([O-])O)[C@@H](O)[C@H]1O.[Mg+2] [Mg.ATP] |  |  |  |  | [Ca^2+]i (fura-2) (LTRPC7 [5]; HEK-293 over-expressing LTRPC7): remained similarly steady; also recorded: remains at steady basal levels; LTRPC7 activity (MagNuM currents) (LTRPC7 [5]; bath 2 mM Ca^2+ and 2 mM Mg^2+): little change in LTRPC7 activity
 | [La+3] [La^3+] |  |  |  |  | suppression of inward or outward currents carried by LTRPC7 (LTRPC7 [4]): ineffective; effect on outward currents (LTRPC7 [4]; 10 mM): far less effective in suppressing outward currents; effect on inward currents (LTRPC7 [4]; 10 mM): inhibited inward currents with no sign of significant permeation
 | [Sr+2] [Sr^2+] | increases of the outward current | slight to moderate increases of the inward current | relatively minor inhibitions of the outward current | moderate increases of the inward | permeation sequence based on peak inward currents (LTRPC7 [3]): more effectively transported than Ca^2+ and Mg^2+; effect on outward current (LTRPC7 [1]; listed as Sr2+): increase of the outward current; effect on inward current (LTRPC7 [1]; listed as Sr2+): slight to moderate increase of the inward current

SMILES | increase in inward current compared to Ca^2+ (LTRPC7 [1]) | effect on outward current (LTRPC7 [1]) | effect on inward current (LTRPC7 [1]) | effect on outward current (LTRPC7 [3]) | effect on inward current (LTRPC7 [3]) | also measured
[Co+2] [Co^2+] | less than double | block of outward currents; also recorded: block of the outward current | slight to moderate increase of the inward current | strong block of the outward current | gradual increase of the inward current | 
[Ni+2] [Ni^2+] | greater than three-fold | block of outward currents; also recorded: block of the outward current | large increase of the inward current | strong block of the outward current | large increase of the inward | permeation sequence based on peak inward currents (LTRPC7 [3]): most permeant metal
